# Data from patent publication US6359010B1, “Methods of treating anxiety and mood disorders with oleamide” (priority 1999, dated 2002).
# Read-outs that look alike come from different tables or passages of the source.
# Legend:
# rat 5-HT2 receptor = conditions: oocytes expressing the rat 5-HT2 receptor, cited from earlier work
# [1] = tested on: CRH mRNA in cloned hypothalamic IVB cells; test: CRH mRNA detection by Northern hybridization in clone IVB cells; assay type: cell-based, rat; conditions: 0 mM to 10 mM oleamide, 20 hours incubation, densitometry normalized to 28S, vs vehicle
# Experimental: (§1) Embryonic day 19 Sprague Dawley rats were humanely dissected from pregnant rats and decapitated as described by Kasckow et al. (1997). The hypothalamus was removed and sliced. Hypothalamic slices were placed in phosphate buffered saline (PBS: NaCl, 137 mM; Na2HPO4, 21 mM; KH2PO4, 29 mM; KCl, 1.2 mM; pH 7.3). Cells were dissociated for 10-15 minutes in 0.25% trypsin containing 75 units/ml of DNAse in serum-free media (SFM) consisting of a mixture of Dulbecco's modified essential medium and Ham's F-12 (1:1, v/v from Gibco) supplemented with 14 mM glucose, 15 mM NaHCO3, 5 mM Hepes and 0.05 U/ml of penicillin streptomycin (Sigma). […]
# (§2) Virus producer cell line γCRE/pZIPTEX was propagated at 1×10^6 cells per 100 mm tissue culture dish in the same media used for dissociated hypothalamic cultures (SFM+7.5% fetal bovine serum). […] One cell was selected on the basis of CRH peptide production which was monitored by radioimmunoassay (described below). […]
# Total RNA was isolated using the PUREscript RNA isolation kit (Gentra Systems, Minneapolis, Minn.). […] A Foto/Eclipse Imager (Fotodyne Inc., Hartland, Wis.) interfaced with Power Macintosh 8100/110 using NIH ImageQuant analysis software was utilized for densitometric quantitation of the mRNA bands.
# (§3) The quantitative data obtained were expressed as mean±standard error. […]
# rats [2] = test: Elevated plus maze; assay type: in vivo, rat
# Experimental: Methods for elevated plus maze testing were as follows: Based on Lister (1987), a 2 feet-4 arm radial maze consisting of 2 opposing enclosed arms (30 cm high×30 cm long×5 cm wide) and 2 opposing exposed arms (30 cm×5 cm) was constructed and was elevated on a pedestal 30 cm above the surface of a table and situated in the center of a dimly lit room. Testing was conducted in a quiet, dedicated room that was dimmed to provide 22 to 350 lux of illumination on the exposed arms of the maze and less than 1 lux within the enclosed arms. Animals were placed facing towards the enclosed arm in the center of the plus maze. […] (1992 , 1994). We assessed time in open arms and closed arms, total number of entries and rearings, based on Windle et al. (1997). All observers were blind to treatment to remove any investigator bias.
# [3] = tested on: c-fos mRNA in brain areas; conditions: IP, rodents, cited from earlier work
# 5HT2 = conditions: in vivo evidence; cited from earlier work
# rats [4] = conditions: cited from earlier work
# [5] = tested on: N-methyl-D-aspartate (NDMA) receptor; conditions: cited from earlier work
# [6] = tested on: CRH release from cloned hypothalamic IVB cells; test: CRH release from clone IVB cells by radioimmunoassay; assay type: cell-based, rat
# Experimental: as §1, §2
# RIA for CRH was performed according to the protocol provided by IgG Corporation (Nashville, Tenn.) utilizing the reagents provided. […] Radioactivity of the pellet was measured using a Packard Multi-Prias 4 gamma counter (Packard Instruments, Downers, Ill.).
# as §3
# GABAA receptor = conditions: cited from earlier work
# 5HT3 receptor = target: T1, 5HT3 receptor (Homo sapiens, UniProt P46098); conditions: cited from earlier work
# T1 sequence (P46098 24-478): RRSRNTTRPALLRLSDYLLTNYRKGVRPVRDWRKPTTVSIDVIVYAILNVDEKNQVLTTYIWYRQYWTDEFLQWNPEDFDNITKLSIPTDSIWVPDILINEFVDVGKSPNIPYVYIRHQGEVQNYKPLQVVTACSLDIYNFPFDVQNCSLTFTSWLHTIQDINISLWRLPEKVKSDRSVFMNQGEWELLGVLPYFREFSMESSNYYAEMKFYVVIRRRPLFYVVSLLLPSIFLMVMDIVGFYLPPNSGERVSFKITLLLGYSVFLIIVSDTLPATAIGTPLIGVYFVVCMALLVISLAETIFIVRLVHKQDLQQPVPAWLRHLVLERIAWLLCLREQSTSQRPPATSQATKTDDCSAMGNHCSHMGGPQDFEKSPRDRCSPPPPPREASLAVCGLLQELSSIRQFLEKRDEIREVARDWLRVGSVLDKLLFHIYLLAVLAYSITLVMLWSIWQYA
SMILES,effect on 5-HT-elicited currents (rat 5-HT2 receptor),CRH mRNA (CRH synthesis) [1],CRH mRNA (CRH synthesis) ([1]; listed as Oleamide),"exploratory behavior (rats [2]; 2 mg dose, rats approx. 250 g, n=10 per group)","total number of entries to both open and closed arm (rats [2]; 2 mg dose, rats, relative to vehicle, P=0.0241)","Rearings (mean) (rats [2]; 5 min of testing, 2 mg dose, rats, control 8.2, P=0.002)","Rearings (mean) (rats [2]; 10 min of testing, 2 mg dose, rats, control 15, P=0.01)",overall activity (rats [2]; IP dosing),activation of brain areas (transient induction of c-fos mRNA) ([3]; 1 mg/kg),activation of brain areas (transient induction of c-fos mRNA) ([3]; 5 or 10 mg/kg),5HT2 function in vivo (5HT2),sleep latency (rats [4]; doses between 5 and 150 mg),"duration of induced sleep (rats [4]; intraperitoneal, doses between 5 and 50 mg)",effects on NMDA receptor [5],"immunoreactive CRH (CRH-LI) release ([6]; cloned IVB cells, 10 μM oleamide vs vehicle, n=9)","release of CRH ([6]; cloned hypothalamic IVB cells, concentration dependence)",effects on GABAA receptor (GABAA receptor),effects on 5HT3 receptor (5HT3 receptor),direct effects on 5-HT2 receptor (rat 5-HT2 receptor; without 5-HT)
"CCCCCCCCCCCCCCCCCC(N)=O [octadecanamide, reference compound]",opposite those of oleamide,,,,,,,,,,,,,,,,,,
"CCCCCCCC/C=C\CCCCCCCC(N)=O [oleamide, cis-9,10-octadecenoamide]",markedly potentiates,concentration-dependent manner,increased CRH mRNA,overall increase in exploratory behavior,approximately doubled,17.2,24,decreasing overall activity,not,activation of multiple brain areas,indirectly potentiates,reduce sleep latency,1 to 2.5 h,no significant effects,significant increase,significant concentration-dependent increases,no significant effects,no significant effects,no significant direct effects
"CCCCCCCC/C=C\CCCCCCCC(=O)O [oleic acid, reference compound]",does not have any effect,,,,,,,,,,,,,,,,,,
